# Laboratory results published in US20150105252A1, “SUBSTITUTED PYRAZOLES AS HERBICIDES” (E I DU PONT DE NEMOURS AND COMPANY, priority 2013, published 2015).
# Experiments:
# cocklebur = assay: Test C postemergence; format: in vivo, Xanthium strumarium; details: for Cocklebur plant response rating: scale 0 to 100
# Description: (§1) Seeds of plant species selected from blackgrass (Alopecurus myosuroides), ryegrass, Italian (Italian ryegrass, Lolium multiflorum), wheat (winter wheat, Triticum aestivum), galium (catchweed bedstraw, Galium aparine), corn (Zea mays), crabgrass, large (large crabgrass, Digitaria sanguinalis), foxtail, giant (giant foxtail, Setaria faberii), johnsongrass (Sorghum halepense), lambsquarters (Chenopodium album), morningglory (Ipomoea coccinea), nutsedge, yellow (yellow nutsedge, Cyperus esculentus), pigweed (redroot pigweed, Amaranthus retroflexus), ragweed (common ragweed, Ambrosia elation), soybean (Glycine max), barnyardgrass (Echinochloa crus-galli), oilseed rape (Brassica napus), waterhemp (common waterhemp, Amaranthus rudis), oat, wild (wild oat, Avena fatua), kochia (Kochia scoparia), Surinam grass (Brachiaria decumbens), foxtail, green (green foxtail, Setaria viridis), goosegrass (Eleusine indica), bromegrass, downy (downy bromegrass, Bromus tectorum), nightshade (eastern black nightshade, Solanum ptycanthum), cocklebur (common cocklebur, Xanthium strumarium), cupgrass, woolly (woolly cupgrass, Eriochloa villosa), bermudagrass (Cynodon dactylon), sunflower, (common oilseed sunflower, Helianthus annuus), Russian thistle (Salsola kali), and velvetleaf (Abutilon theophrasti) were planted into a blend of loam soil and sand and treated preemergence with test chemicals formulated in a non-phytotoxic solvent mixture which included a surfactant.
# (§2) At the same time, plants selected from these crop and weed species and also chickweed (common chickweed, Stellaria media), canarygrass (littleseed canarygrass, Phalaris minor), and deadnettle (henbit deadnettle, Lamium amplexicaule), were planted in pots containing Redi-Earth® planting medium (Scotts Company, 14111 Scottslawn Road, Marysville, Ohio 43041) comprising spaghnum peat moss, vermiculite, wetting agent and starter nutrients and treated with postemergence applications of test chemicals formulated in the same manner. Plants ranged in height from 2 to 18 cm (1- to 4-leaf stage) for postemergence treatments. Treated plants and controls were maintained in a greenhouse for 13 to 15 days, after which time all species were compared to controls and visually evaluated. Plant response ratings, summarized in Table C, are based on a scale of 0 to 100 where 0 is no effect and 100 is complete control. A dash (-) response means no test result.
# oat, wild = assay: Test C preemergence; format: in vivo, Avena fatua; details: for Plant response rating (scale of 0 to 100), Oat, Wild: Preemergence, 250 g ai/ha; for Oat, Wild plant response rating / Plant response rating, Oat, Wild: preemergence; for Plant response rating, Oat, Wild: 62 g ai/ha, scale 0 to 100, 0 = no effect, 100 = complete control
# Description: as §1, §2
# nightshade = assay: Test C preemergence; format: in vivo, Solanum ptycanthum; details: for Plant response rating (scale of 0 to 100), Nightshade: Preemergence, 250 g ai/ha; for Nightshade plant response rating / Plant response rating, Nightshade: preemergence; for Plant response rating, Nightshade: 62 g ai/ha, scale 0 to 100, 0 = no effect, 100 = complete control
# Description: as §1, §2
# bermudagrass = assay: Test C preemergence; format: in vivo, Cynodon dactylon; details: for Plant response rating (scale of 0 to 100), Bermudagrass: Preemergence, 250 g ai/ha; for Bermudagrass plant response rating / Plant response rating, Bermudagrass: preemergence; for Plant response rating, Bermudagrass: 62 g ai/ha, scale 0 to 100, 0 = no effect, 100 = complete control
# Description: as §1, §2
# green foxtail = assay: Test F preemergence; format: in vivo, Setaria viridis
# Description: (§3) Seeds of plant species selected from corn (Zea mays), soybean (Glycine max), velvetleaf (Abutilon theophrasti), lambsquarters (Chenopodium album), wild poinsettia (Euphorbia heterophylla), pigweed, palmer (palmer pigweed, Amaranthus palmeri), common waterhemp (Amaranthus rudis), surinam grass (Brachiaria decumbens), large crabgrass (Digitaria sanguinalis), crabgrass, Brazil (Brazilian crabgrass, Digitaria horizontalis), fall panicum (Panicum dichotomiflorum), giant foxtail (Setaria faberii), green foxtail (Setaria viridis), goosegrass (Eleusine indica), johnsongrass (Sorghum halepense), common ragweed (Ambrosia elation), barnyardgrass (Echinochloa crus-galli), southern sandbur (Cenchrus echinatus), arrowleaf sida (Sida rhombifolia), Italian ryegrass (Lolium multiflorum), dayflower, VA (Virginia (VA) dayflower, Commelina virginica), field bindweed (Convolvulus arvensis), cocklebur (common cocklebur, Xanthium strumarium), morningglory (Ipomoea coccinea), nightshade (eastern black nightshade, Solanum ptycanthum), kochia (Kochia scoparia), yellow nutsedge (Cyperus esculentus), and hairy beggarticks (Bidens pilosa), were planted into a silt loam soil and treated preemergence with test chemicals formulated in a non-phytotoxic solvent mixture which included a surfactant.
# (§4) At the same time, plants from these crop and weed species and also horseweed (Canada horseweed, Conyza canadensis), smartweed (ladysthumb smartweed, Polygonum persicaria), waterhemp_RES1, (ALS & Triazine resistant common waterhemp, Amaranthus rudis), and waterhemp_RES2, (ALS & HPPD resistant common waterhemp, Amaranthus rudis) were treated with postemergence applications of test chemicals formulated in the same manner. Plants ranged in height from 2 to 18 cm for postemergence treatments (1- to 4-leaf stage). Treated plants and controls were maintained in a greenhouse for 14 to 21 days, after which time all species were compared to controls and visually evaluated. Plant response ratings, summarized in Table F, are based on a scale of 0 to 100 where 0 is no effect and 100 is complete control. A dash (-) response means no test result.
# wild poinsettia = assay: Test F preemergence; format: in vivo, Euphorbia heterophylla
# Description: as §3, §4
# [1] = postemergence, 250 g ai/ha, scale 0 to 100 (0 no effect, 100 complete control)
# [2] = postemergence, 62 g ai/ha, scale 0 to 100, 0 no effect, 100 complete control
# [3] = postemergence, 125 g ai/ha, scale 0 to 100, 0 no effect, 100 complete control
# [4] = 31 g ai/ha, scale 0 to 100 (0 no effect, 100 complete control), 13 to 15 days
# [5] = 125 g ai/ha, scale 0 to 100, 0 is no effect, 100 is complete control
# [6] = Preemergence, 31 g ai/ha, scale 0 to 100
# [7] = Preemergence, 62 g ai/ha, scale 0 to 100
# [8] = Preemergence, 125 g ai/ha, scale 0 to 100
# [9] = preemergence, 8 g ai/ha, scale 0 to 100, 100 is complete control
# [10] = preemergence, 16 g ai/ha, scale 0 to 100, 100 is complete control
smiles,measurement,setting,value
CCc1cc(C(=O)NCC(F)(F)F)nn1Cc1cccc(OC(F)(F)F)c1 [Compound 20],Cocklebur plant response rating,"cocklebur; Postemergence, 31 g ai/ha",20
same,"Plant response rating, Cocklebur",cocklebur; [1],40
same,"Plant response rating, Cocklebur",cocklebur; [2],35
same,"Plant response rating, Cocklebur",cocklebur; [3],35
CCCNC(=O)c1cc(CC)n(Cc2cccc(OC(F)(F)F)c2)n1 [Compound 27],Cocklebur plant response rating,"cocklebur; Postemergence, 31 g ai/ha",20
same,"Plant response rating, Cocklebur",cocklebur; [1],40
same,"Plant response rating, Cocklebur",cocklebur; [2],25
same,"Plant response rating, Cocklebur",cocklebur; [3],35
CCc1cc(C(=O)NOC(C)C)nn1Cc1cccc(OC(F)(F)F)c1 [Compound 70],"Plant response rating (scale of 0 to 100), Oat, Wild","oat, wild",65
same,"Oat, Wild plant response rating","oat, wild; [4]",5
same,"Plant response rating, Oat, Wild","oat, wild; 13 to 15 days",10
same,"Oat, Wild plant response rating","oat, wild; [5]",50
same,"Plant response rating (scale of 0 to 100), Nightshade",nightshade,98
same,Nightshade plant response rating,nightshade; [4],70
same,"Plant response rating, Nightshade",nightshade; 13 to 15 days,98
same,Nightshade plant response rating,nightshade; [5],98
same,"Plant response rating (scale of 0 to 100), Bermudagrass",bermudagrass,100
same,Bermudagrass plant response rating,bermudagrass; [4],98
same,"Plant response rating, Bermudagrass",bermudagrass; 13 to 15 days,98
same,Bermudagrass plant response rating,bermudagrass; [5],100
same,Cocklebur plant response rating,"cocklebur; Postemergence, 31 g ai/ha",10
same,"Plant response rating, Cocklebur",cocklebur; [1],45
same,"Plant response rating, Cocklebur",cocklebur; [2],15
same,"Plant response rating, Cocklebur",cocklebur; [3],20
CCONC(=O)c1cc(CC)n(Cc2cccc(OC(F)(F)F)c2)n1 [Compound 72],"Plant response rating (scale of 0 to 100), Oat, Wild","oat, wild",85
same,"Oat, Wild plant response rating","oat, wild; [4]",30
same,"Plant response rating, Oat, Wild","oat, wild; 13 to 15 days",60
same,"Oat, Wild plant response rating","oat, wild; [5]",80
same,"Plant response rating (scale of 0 to 100), Nightshade",nightshade,100
same,Nightshade plant response rating,nightshade; [4],75
same,"Plant response rating, Nightshade",nightshade; 13 to 15 days,98
same,Nightshade plant response rating,nightshade; [5],98
same,"Plant response rating (scale of 0 to 100), Bermudagrass",bermudagrass,100
same,Bermudagrass plant response rating,bermudagrass; [4],85
same,"Plant response rating, Bermudagrass",bermudagrass; 13 to 15 days,98
same,Bermudagrass plant response rating,bermudagrass; [5],98
same,Cocklebur plant response rating,"cocklebur; Postemergence, 31 g ai/ha",0
same,Cocklebur plant response rating,"cocklebur; postemergence, 62 g ai/ha",0
same,"Plant response rating, Cocklebur",cocklebur; [1],15
same,"Plant response rating, Cocklebur",cocklebur; [3],5
Cc1cc(C(=O)NCC(F)(F)F)nn1Cc1ccnc(C(F)(F)F)c1 [Compound 74],"Plant response rating (scale of 0 to 100), Oat, Wild","oat, wild",95
same,"Oat, Wild plant response rating","oat, wild; [4]",0
same,"Plant response rating, Oat, Wild","oat, wild; 13 to 15 days",40
same,"Oat, Wild plant response rating","oat, wild; [5]",85
same,"Plant response rating (scale of 0 to 100), Nightshade",nightshade,98
same,Nightshade plant response rating,nightshade; [4],90
same,"Plant response rating, Nightshade",nightshade; 13 to 15 days,90
same,Nightshade plant response rating,nightshade; [5],95
same,"Plant response rating (scale of 0 to 100), Bermudagrass",bermudagrass,98
same,Bermudagrass plant response rating,bermudagrass; [4],50
same,"Plant response rating, Bermudagrass",bermudagrass; 13 to 15 days,90
same,Bermudagrass plant response rating,bermudagrass; [5],98
same,Cocklebur plant response rating,"cocklebur; Postemergence, 31 g ai/ha",20
same,Cocklebur plant response rating,"cocklebur; postemergence, 62 g ai/ha",20
same,"Plant response rating, Cocklebur",cocklebur; [1],55
same,"Plant response rating, Cocklebur",cocklebur; [3],50
CCc1cc(-c2ccc(C(F)(F)F)cc2)nn1Cc1ccnc(C(F)(F)F)c1 [Compound 110],"Plant response rating, Green Foxtail",green foxtail; [6],75
same,"Plant response rating, Green Foxtail",green foxtail; [7],100
same,"Plant response rating, Green Foxtail",green foxtail; [8],100
same,"Plant response rating, Green Foxtail",green foxtail; [9],25
same,"Plant response rating, Green Foxtail",green foxtail; [10],30
same,"Plant response rating, Wild Poinsettia",wild poinsettia; [6],35
same,"Plant response rating, Wild Poinsettia",wild poinsettia; [7],50
same,"Plant response rating, Wild Poinsettia",wild poinsettia; [8],80
same,"Plant response rating, Wild Poinsettia",wild poinsettia; [9],25
same,"Plant response rating, Wild Poinsettia",wild poinsettia; [10],25
